± gives the expanded uncertainty stated by the source.
Assay: mn = molality of the nth substance listed, in mol/kg
Conditions: 298.15 K, 101 kPa, Liquid

NCC(=O)O [2-aminoacetic acid] + O
Conditions	mass density [kg/m3]
m1 = 0.0988	1000.19 ± 0.48
m1 = 0.1509	1001.82 ± 0.49
m1 = 0.2033	1003.44 ± 0.49
m1 = 0.2463	1004.78 ± 0.49
m1 = 0.2996	1006.4 ± 0.5
m1 = 0.3513	1007.96 ± 0.5
m1 = 0.4037	1009.55 ± 0.51
m1 = 0.4497	1010.94 ± 0.51

NC(CO)C(=O)O (stereo not drawn) [(.+-.)-serine] + O
Conditions	mass density [kg/m3]
m1 = 0.02628	998.22 ± 0.49
m1 = 0.04948	999.26 ± 0.48
m1 = 0.07419	1000.35 ± 0.48
m1 = 0.1008	1001.52 ± 0.49
m1 = 0.1252	1002.6 ± 0.49
m1 = 0.1509	1003.72 ± 0.49
m1 = 0.1753	1004.76 ± 0.5
m1 = 0.2009	1005.86 ± 0.5

C[C@H](N)C(=O)O [(S)-2-aminopropanoic acid] + O
Conditions	mass density [kg/m3]
m1 = 0.1065	1000.07 ± 0.48
m1 = 0.1518	1001.34 ± 0.48
m1 = 0.2006	1002.71 ± 0.49
m1 = 0.2568	1004.27 ± 0.49
m1 = 0.3059	1005.52 ± 0.5
m1 = 0.359	1007.03 ± 0.5
m1 = 0.4066	1008.35 ± 0.5
m1 = 0.4555	1009.54 ± 0.51

C[C@@H](O)[C@H](N)C(=O)O [DL-threonine] + O
Conditions	mass density [kg/m3]
m1 = 0.0246	998.08 ± 0.49
m1 = 0.0494	999.12 ± 0.48
m1 = 0.07575	1000.22 ± 0.48
m1 = 0.1002	1001.23 ± 0.48
m1 = 0.1256	1002.28 ± 0.49
m1 = 0.1499	1003.28 ± 0.49
m1 = 0.1751	1004.31 ± 0.49
m1 = 0.2001	1005.33 ± 0.5

N[C@@H](Cc1c[nH]cn1)C(=O)O [L-histidine] + O
Conditions	mass density [kg/m3]
m1 = 0.02223	998.29 ± 0.49
m1 = 0.04995	999.84 ± 0.48
m1 = 0.07431	1001.19 ± 0.49
m1 = 0.099	1002.56 ± 0.49
m1 = 0.1232	1003.87 ± 0.49
m1 = 0.1428	1004.92 ± 0.5
m1 = 0.1834	1007.13 ± 0.5
m1 = 0.2013	1008.08 ± 0.51

NCC(=O)NCC(=O)O [glycylglycine] + O
Conditions	mass density [kg/m3]
m1 = 0.02426	998.39 ± 0.49
m1 = 0.05026	999.84 ± 0.48
m1 = 0.07538	1001.22 ± 0.49
m1 = 0.0999	1002.54 ± 0.49
m1 = 0.1253	1003.95 ± 0.49
m1 = 0.1482	1005.2 ± 0.5
m1 = 0.1746	1006.63 ± 0.5
m1 = 0.1974	1007.84 ± 0.51

— the NIST ThermoML archive (doi:10.1016/j.jct.2005.03.015)
